# “And” between values parts separate entries of the source, which are not always exact repeats. Identical values can stand only once. “Also recorded” adds a separate entry of the source. Like-named read-outs stand apart in the source and are kept apart here. Square brackets hold non-standard residues; d marks the D form. Peptide text beside a SMILES is read from it.
# Assays:
# physchem = assay: physchem
# Protocol: Supplementary Fig. 7. […] (a) THP1 cells were exposed to the indicated doses of XQ2 or XQ2B for 48h. The cell viability was measured by CCK8 assay. (b) The comparison of solubility of XQ2 and XQ2B. The maximum concentration of XQ2 or XQ2B dissolved in water was measured by a spectrophotometer at 280nm. […]
# Data are representative of three independent experiments with similar results in (e), or three independent experiments in (a -d, f, g) . (Data are presented as mean ± SD, n = 3 independent samples in (a-d, f, g), ns, not significant, **p < 0.01, ***p < 0.001, ****p < 0.0001 using one-way ANOV A with Dunnett’s post hoc test). Source data are provided as a Source Data file.
# [1] = tested on: dsDNA-stimulated THP1 cells; assay: qPCR of IFNB1/CXCL10/IL6 mRNA in THP1 cells stimulated by dsDNA (ISD, HSV60mer); assay type: cell-based, human; conditions: for IFNB1 mRNA, qPCR, Fig. 2b: 10 μM
# Source text: To screen direct cGAS inhibitors targeting protein-DNA interface from our developed focused library of macrocyclic peptides, we applied an RNA-based fluorescent biosensor for 2’,3’-cGAMP to detect cGAS activity in vitro (Supplementary Fig. 1a)[49]. The formation of 2’,3’-cGAMP from ATP and GTP was catalyzed by recombinant human cGAS enzyme (hcGAS-ΔN, residues 147–522, Supplementary Fig. 1b) in the presence of ISD (interferon stimulatory DNA, a 45-bp dsDNA), which was readily quantified by the RNA-based fluorescent biosensor and was further confirmed by ion exchange chromatography (Supplementary Fig. 1c). […] Subsequently, a total of 90 macrocyclic peptides were screened at a concentration of 20 μM (Fig. 1a and Supplementary Fig. 1e), and 4 hits (XQ2, XQ8, XQ19, and XQ46) were obtained for further testing at a cut-off of 40% inhibition (Supplementary Table 1). To evaluate the inhibitory effect of the hits against cGAS in cells, we employed real-time quantitative PCR (qPCR) to examine mRNA levels of IFNΒ1 in THP1 cells. The reported cGAS inhibitor RU.521 was used as the positive control, and the non-active peptide XQ28 in the screening assay was used as the negative control. […] The inhibition of cGAS by these hits was further confirmed in the reporter cell line THP1-Lucia ISG (Invivogen) that expresses secreted luciferase induced by an IRF3-inducible ISG54 promoter (Fig. 1c). The discrepancy between the inhibitory effect of the hits in protein and cellular assays may be attributed to their different cellular permeability.
# (§1) The indicated cells were stimulated with either ISD (Sangon Biotech), HSV-1 (Provided by Dr. Zhengfan Jiang), HSV60mer (Sangon Biotech), SATE-cddA[70], 2’3’-cGAMP (Invivogen, Cat# tlrl-nacga23-1), ADU-S100 (MedChemExpress, Cat# HY-12885A) or Poly(I:C) (Invivogen, Cat# tlrl-pic) after XQ2 or XQ2B treatment. Total RNA was isolated from indicated cells that incubated with the drugs for indicated time or mice tissues by using NucleoZOL reagent (MACHEREY-NAGEL) according to the manufacturer’s instructions. The quantifications of mRNA levels were carried out by real-time PCR using a PerfectStart® Uni RT&qPCR Kit (TransGen Biotech) on the QuantStudio 5 qPCR machine (Applied Biosystems). Samples were carried out in triplicate and the target CT values were normalized to GAPDH CT values. Primers of qPCR used in this study can be found in Supplementary Table S2.
# [2] = tested on: macrophage RAW264.7 cells; assay: qPCR of Ifnb1/Cxcl10/Il6 mRNA in RAW264.7 cells (ISD or HSV-1); assay type: cell-based, mouse; set-up: key to Ifnb1 mRNA (Fig. S2c) / Cxcl10 mRNA (Fig. S2c) / Ifnb1 mRNA (Fig. S2d) / Cxcl10 mRNA (Fig. S2d) / Ifnb1 mRNA (Fig. S7g) / Cxcl10 mRNA (Fig. S7g) / Il6 mRNA (Fig. S7g): mRNA level normalized to GAPDH (relative expression)
# Protocol: as §1, with “S2. […]” for “S2.”
# (c) L929, p = 0.0005 (Ifnb1),
# BMDMs, p = 0.0001 (Ifnb1), p < 0.0001 (Cxcl10).
# representative of three independent experiments in (a-g). (Data are presented as mean ± SD, n = 3 independent
# Source data are provided as a Source Data file.
# primary human PBMCs = assay: qPCR of IFNB1 and IL6 mRNA in ISD-stimulated PBMCs; assay type: cell-based; set-up: key to IFNB1 mRNA, qPCR, Fig. 2c / IL6 mRNA, qPCR, Fig. 2c / IFNB1 mRNA (Fig. S7f) / IL6 mRNA (Fig. S7f): relative mRNA level, target CT normalized to GAPDH CT; conditions: 10 μM
# Protocol: as §1
smiles,measurement,setting,value
"CC(C)C[C@@H]1NC(=O)[C@H](CCCNC(=N)N)NC(=O)[C@H](C(C)C)NC(=O)[C@@H]2CCCN2C(=O)[C@@H](Cc2ccccc2)NC(=O)[C@H](CC(C)C)NC(=O)[C@H](CCCNC(=N)N)NC(=O)[C@H](C(C)C)NC(=O)[C@H](C)NC(=O)[C@@H](Cc2ccccc2)NC1=O [XQ2, Cyclo (LfAVRLfPVR)] (cyclo(L[dF]AVRL[dF]PVR))",solubility,physchem,low solubility at higher concentrations
same,solubility,"physchem; Concentration (solubility, Fig. S7b)",860 µg/mL
same,CXCL10 mRNA (Fig. S2a),"[1]; ISD, XQ2 0.31 μM",608.071 and 547.477 and 553.882
same,IFNB1 mRNA (Fig. S2a),"[1]; ISD, XQ2 0.31 μM",85.2902 and 89.4127 and 103.445
same,IL6 mRNA (Fig. S2a),"[1]; ISD, XQ2 0.31 μM",53.8661 and 62.1977 and 48.2598
same,CXCL10 mRNA (Fig. S2a),"[1]; ISD, XQ2 0.63 μM",550.9 and 499.514 and 482.522
same,IFNB1 mRNA (Fig. S2a),"[1]; ISD, XQ2 0.63 μM",75.3551 and 77.8155 and 85.6546
same,IL6 mRNA (Fig. S2a),"[1]; ISD, XQ2 0.63 μM",45.9203 and 56.9516 and 44.1827
same,CXCL10 mRNA (Fig. S2a),"[1]; ISD, XQ2 1.25 μM",440.727 and 424.983 and 441.062
same,IFNB1 mRNA (Fig. S2a),"[1]; ISD, XQ2 1.25 μM",54.4915 and 50.1897 and 58.943
same,IL6 mRNA (Fig. S2a),"[1]; ISD, XQ2 1.25 μM",59.6412 and 54.8577 and 42.9996
same,CXCL10 mRNA (Fig. S2a),"[1]; ISD, XQ2 2.5 μM",320.996 and 337.289 and 307.846
same,IFNB1 mRNA (Fig. S2a),"[1]; ISD, XQ2 2.5 μM",46.4673 and 40.8489 and 46.9306
same,IL6 mRNA (Fig. S2a),"[1]; ISD, XQ2 2.5 μM",51.498 and 49.1657 and 30.2376
same,CXCL10 mRNA (Fig. S2a),"[1]; ISD, XQ2 5 μM",341.101 and 357.811 and 355.382
same,IFNB1 mRNA (Fig. S2a),"[1]; ISD, XQ2 5 μM",26.7077 and 29.7394 and 30.8514
same,IL6 mRNA (Fig. S2a),"[1]; ISD, XQ2 5 μM",24.0755 and 29.7141 and 20.0828
same,CXCL10 mRNA (Fig. S2a),"[1]; ISD, XQ2 10 μM",329.162 and 346.227 and 299.128
same,IFNB1 mRNA (Fig. S2a),"[1]; ISD, XQ2 10 μM",10.6974 and 11.3948 and 12.0973
same,IL6 mRNA (Fig. S2a),"[1]; ISD, XQ2 10 μM",18.3875 and 16.237 and 20.2076
same,CXCL10 mRNA (Fig. S2a),"[1]; Mock, XQ2 0.31 μM",0.6255 and 0.7855 and 0.8542
same,IFNB1 mRNA (Fig. S2a),"[1]; Mock, XQ2 0.31 μM",0.7527 and 0.6452 and 0.8722
same,IL6 mRNA (Fig. S2a),"[1]; Mock, XQ2 0.31 μM",0.9875 and 1.125 and 1.458
same,CXCL10 mRNA (Fig. S2a),"[1]; Mock, XQ2 0.63 μM",0.4588 and 0.432 and 0.4044
same,IFNB1 mRNA (Fig. S2a),"[1]; Mock, XQ2 0.63 μM",0.713 and 0.5919 and 0.8053
same,IL6 mRNA (Fig. S2a),"[1]; Mock, XQ2 0.63 μM",1.48 and 1.078 and 1.222
same,CXCL10 mRNA (Fig. S2a),"[1]; Mock, XQ2 1.25 μM",1.308 and 1.359 and 1.615
same,IFNB1 mRNA (Fig. S2a),"[1]; Mock, XQ2 1.25 μM",0.9026 and 1.107 and 1.382
same,CXCL10 mRNA (Fig. S2a),"[1]; Mock, XQ2 2.5 μM",3.137 and 2.991 and 2.833
same,IFNB1 mRNA (Fig. S2a),"[1]; Mock, XQ2 2.5 μM",1.426 and 1.751 and 1.799
same,IL6 mRNA (Fig. S2a),"[1]; Mock, XQ2 2.5 μM",2.387 and 2.459 and 3.439
same,CXCL10 mRNA (Fig. S2a),"[1]; Mock, XQ2 5 μM",1.923 and 2.134 and 2.246
same,IFNB1 mRNA (Fig. S2a),"[1]; Mock, XQ2 5 μM",1.17 and 1.093 and 1.0788
same,CXCL10 mRNA (Fig. S2a),"[1]; Mock, XQ2 10 μM",4.593 and 4.941 and 4.3739
same,IFNB1 mRNA (Fig. S2a),"[1]; Mock, XQ2 10 μM",1.523 and 2.285 and 2.284
same,IL6 mRNA (Fig. S2a),"[1]; Mock, XQ2 10 μM",4.656 and 4.111 and 3.925
same,"dsDNA/ISD-induced IFNB1, CXCL10, IL6 expression",[1]; THP1,"inhibited the expression level of IFNΒ1 and CXCL10, as well as IL6; also recorded: best potency in the cellular assays"
same,"IFNB1 mRNA, qPCR, Fig. 2b","[1]; THP1, ISD",72.2364 and 85.3888 and 75.3743
same,"IFNB1 mRNA, qPCR, Fig. 2b","[1]; THP1, Mock (no stimulus)",1.523 and 2.285 and 2.284
same,"IFNB1 mRNA, qPCR, Fig. 1b","[1]; THP1, dsDNA 6 h, hits 10 μM, replicate values",24.5085 and 22.546 and 27.0371
same,cellular efficacy against cGAS,"[1]; as stated in the rebuttal letter, cellular assays",< 10 µM
same,Ifnb1 and Cxcl10 expression induced by ISD and HSV-1,"[2]; RAW264.7, 10 μM",significantly inhibited the expression of Ifnb1 and its downstream gene Cxcl10
same,Cxcl10 mRNA (Fig. S2d),"[2]; RAW264.7, HSV-1+XQ2",226.869 and 260.086 and 204.298
same,Ifnb1 mRNA (Fig. S2d),"[2]; RAW264.7, HSV-1+XQ2",1317.92 and 1543.45 and 1644.53
same,Cxcl10 mRNA (Fig. S2c),"[2]; RAW264.7, ISD+XQ2",1626.72 and 1806.59 and 1855.72
same,Ifnb1 mRNA (Fig. S2c),"[2]; RAW264.7, ISD+XQ2",12350.6 and 12954.9 and 11525.9
same,Cxcl10 mRNA (Fig. S2c),"[2]; RAW264.7, XQ2 alone",3.511 and 3.569 and 3.235
same,Cxcl10 mRNA (Fig. S2d),"[2]; RAW264.7, XQ2 alone",3.511 and 3.569 and 3.235
same,Ifnb1 mRNA (Fig. S2c),"[2]; RAW264.7, XQ2 alone",1.57 and 1.726 and 1.836
same,Ifnb1 mRNA (Fig. S2d),"[2]; RAW264.7, XQ2 alone",1.57 and 1.726 and 1.836
same,ISD-induced IFNB1 and IL6 expression in PBMCs,primary human PBMCs,markedly suppressed the expression of IFNB1 and IL6; also recorded: significantly inhibit the activation of cGAS induced by ISD
same,"IFNB1 mRNA, qPCR, Fig. 2c","primary human PBMCs; PBMCs, ISD",362.804 and 380.938 and 448.513
same,"IL6 mRNA, qPCR, Fig. 2c","primary human PBMCs; PBMCs, ISD",261.548 and 423.427 and 399.836

# From PMC10545747, “Development of cyclopeptide inhibitors of cGAS targeting protein-DNA interaction and phase separation” (Nature Communications, 2023)
